Experiments:
[1] = tested on: human non-small cell lung cancer NCI-H1975; test: Biological Example 8: in vivo xenograft model of human non-small cell lung cancer NCI-H1975; parameters: species or system Balb/c-nu nude mice; conditions: nude mice
[2] = tested on: BxPC-3 (human pancreatic cancer in situ); test: In vitro inhibitory effect against human tumor cells (MTT or SRB); format: cell-based; conditions: BXPC-3, 72 h, BxPC-3, test method printed MTT (head: SRB), 3 days
[3] = tested on: SK-OV-3 (human ovarian cancer); test: In vitro inhibitory effect against human tumor cells (MTT); format: cell-based; conditions: SK-OV-3, 72 h, SK-OV-3, MTT, 3 days
[4] = tested on: HCT116 (human colorectal cancer); test: as above; format: cell-based; conditions: HCT-116, 72 h, 3 days
[5] = tested on: NCI-H1975 (human non-small cell lung cancer); test: as above; format: cell-based; conditions: NCI-H1975, 72 h, 3 days
[6] = tested on: NCI-N87 (human gastric cancer cell); test: as above; format: cell-based; conditions: NCI-N87, 72 h, 3 days
[7] = tested on: Fadu (human pharyngeal squamous cell carcinoma); test: as above; format: cell-based; conditions: 72 h, 3 days
[8] = tested on: human ovarian cancer SK-OV-3; test: Biological Example 6: in vivo xenograft model of human ovarian cancer SK-OV-3; parameters: species or system Balb/c-nu nude mice; conditions: SK-OV-3 xenograft, nude mice, 0.8 mg/kg i.v. qw×3
[9] = tested on: 22RV1 (human prostate cancer); test: In vitro inhibitory effect against human tumor cells (SRB); format: cell-based; conditions: 22Rv1, 72 h, 22RV1, SRB, 3 days
[10] = tested on: MDA-MB-468 (human triple-negative breast cancer); test: as above; format: cell-based; conditions: MDA-MB-468, 72 h, MDA-MB-468, SRB, 3 days
[11] = tested on: SW620 (human colorectal cancer); test: as above; format: cell-based; conditions: SW-620, 72 h, 3 days
[12] = tested on: A375 (human malignant melanoma); test: as above; format: cell-based; conditions: A-375, 72 h, 3 days
[13] = tested on: HepG2 (human liver cancer cell); test: as above; format: cell-based; conditions: HepG2, 72 h, 3 days
[14] = tested on: HCC827 (human non-small cell lung cancer); test: as above; format: cell-based; conditions: HCC827, 72 h, 3 days
[15] = With addition of βGU (1 µg/well)

CC[C@H](C)[C@@H]([C@@H](CC(=O)N1CCC[C@H]1[C@H](OC)[C@@H](C)C(=O)N[C@H](C)[C@@H](O)c1ccccc1)OC)N(C)C(=O)[C@@H](NC(=O)[C@H](C(C)C)[N+](C)(C)Cc1ccc(O[C@@H]2O[C@H](C(=O)[O-])[C@@H](O)[C@H](O)[C@H]2O)cc1OCc1cn(CCCCCC(=O)Nc2ccc(-c3ccc(/N=N/c4ccc5c(S(=O)(=O)[O-])cc(S(=O)(=O)[O-])c(N)c5c4O)c(C)c3)cc2C)nn1)C(C)C.[Na+].[Na+] [Example compound 4]
Final body weight change (%) ([1]; 0.8 mg/kg i.v. qw×3): 4.9%
Maximum body weight change (%) ([1]; 0.8 mg/kg i.v. qw×3): 4.9, d24%
Relative volume RTV (x±S.D.) ([1]; 0.8 mg/kg i.v. qw×3): 0.33±0.17
T/C (%) ([1]; 0.8 mg/kg i.v. qw×3): 2.7%
Tumor inhibition rate (%) ([1]; 0.8 mg/kg i.v. qw×3): 97.3%
Tumor weight (g, x±S.D.) ([1]; 0.8 mg/kg i.v. qw×3): 0.072 ± 0.046 g
Body weight (g, x±S.D.) End 24d ([1]; 0.8 mg/kg i.v. qw×3, End 24d): 26.0 ± 1.1 g
Body weight (g, x±S.D.) Start ([1]; 0.8 mg/kg i.v. qw×3, Start): 24.8 ± 0.8 g
IC50 [2, 15]: 1.9 nM
IC50 ([2]; βGU-free): 44 nM
IC50 [3, 15]: 5.1 nM
IC50 ([3]; βGU-free): 215 nM
IC50 [4, 15]: 6.6 nM
IC50 ([4]; βGU-free): 139 nM
IC50 [5, 15]: 5.5 nM
IC50 ([5]; βGU-free): 86 nM
IC50 [6, 15]: 2.3 nM
IC50 ([6]; βGU-free): 58 nM
IC50 [7, 15]: 1.7 nM
IC50 ([7]; βGU-free): 21 nM
Final body weight change (%) [8]: 4.2%
Maximum body weight change (%) [8]: 4.8, d17%
Relative volume RTV (x±S.D.) [8]: 0.79±0.79
T/C (%) [8]: 7.6%
Tumor inhibition rate (%) [8]: 96.0%
Tumor weight (g, x±S.D.) [8]: 0.055 ± 0.077 g
Body weight (g, x±S.D.) End ([8]; End): 24.2 ± 0.9 g
Body weight (g, x±S.D.) Start ([8]; Start): 23.3 ± 0.8 g
IC50 [9, 15]: 7 nM
IC50 ([9]; βGU-free): 115 nM
IC50 [10, 15]: 0.96 nM
IC50 ([10]; βGU-free): 8.8 nM
IC50 [11, 15]: 3.4 nM
IC50 ([11]; βGU-free): 67 nM
IC50 [12, 15]: 5 nM
IC50 ([12]; βGU-free): 66 nM
IC50 [13, 15]: 4.7 nM
IC50 ([13]; βGU-free): 72 nM
IC50 [14, 15]: 3.4 nM
IC50 ([14]; βGU-free): 54 nM

Source: EP4818187A1, “COMPOUND AND USE THEREOF” (Ganzhou Hemay Pharmaceutical, Co., Ltd, priority 2023, dated 2025)
